Key:
SVOP-FLAG [1] = biological target: T1, SVOP-FLAG (Rattus norvegicus, UniProt Q9Z2I7); test: competition with 8-azido-ATP[γ] biotin photoaffinity labeling, western blot; format: binding; details: read-out: half maximum inhibition concentration
T1 construct: full length (548 residues), C-terminal FLAG tag (DYKDDDK) kept; expressed in HEK293, purified on anti-FLAG M2 gel
T1 sequence (Q9Z2I7 1-548): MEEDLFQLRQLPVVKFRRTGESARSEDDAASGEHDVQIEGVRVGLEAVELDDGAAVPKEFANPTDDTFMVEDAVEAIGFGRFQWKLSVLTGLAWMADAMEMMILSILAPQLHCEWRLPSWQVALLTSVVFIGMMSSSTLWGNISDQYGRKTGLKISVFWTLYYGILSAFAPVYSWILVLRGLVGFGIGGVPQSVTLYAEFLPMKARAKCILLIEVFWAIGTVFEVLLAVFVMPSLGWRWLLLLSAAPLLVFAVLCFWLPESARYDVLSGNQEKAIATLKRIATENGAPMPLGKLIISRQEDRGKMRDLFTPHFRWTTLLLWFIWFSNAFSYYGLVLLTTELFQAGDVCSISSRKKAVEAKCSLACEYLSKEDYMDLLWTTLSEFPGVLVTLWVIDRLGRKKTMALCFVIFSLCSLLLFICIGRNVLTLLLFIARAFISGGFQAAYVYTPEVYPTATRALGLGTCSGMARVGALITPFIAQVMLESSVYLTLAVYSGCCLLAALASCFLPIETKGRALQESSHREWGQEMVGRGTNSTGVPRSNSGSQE

SVOP-FLAG [2] = biological target: T1, SVOP-FLAG; test: as above; format: binding; details: 100 µM 8-azido-ATP[γ] biotin, pH 7.4, on ice

| IC50 (SVOP-FLAG [1]) [µM] | SMILES | decrease of labeling at 1 mM (SVOP-FLAG [2]) |
| --- | --- | --- |
| ~250 | NC(=O)c1ccc[n+]([C@@H]2O[C@H](COP(=O)(O)OP(=O)(O)OC[C@H]3O[C@@H](n4cnc5c(N)ncnc54)[C@H](O)[C@@H]3O)[C@@H](O)[C@H]2O)c1 [NAD] | – |
| – | Cc1cn([C@H]2C[C@H](O)[C@@H](COP(=O)(O)OP(=O)(O)OP(=O)(O)O)O2)c(=O)[nH]c1=O [TTP] | TTP and CTP produced the least inhibition |
| – | Nc1nc2c(ncn2[C@@H]2O[C@H](COP(=O)(O)OP(=O)(O)OP(=O)(O)O)[C@@H](O)[C@H]2O)c(=O)[nH]1 [GTP] | ATP, GTP and NAD displayed the strongest inhibition |
| ~750 | Nc1ncnc2c1ncn2[C@@H]1O[C@H](COP(=O)(O)OP(=O)(O)OP(=O)(O)O)[C@@H](O)[C@H]1O [ATP] | – |
| – | Nc1ccn([C@@H]2O[C@H](COP(=O)(O)OP(=O)(O)OP(=O)(O)O)[C@@H](O)[C@H]2O)c(=O)n1 [CTP] | TTP and CTP produced the least inhibition |
